Data reported in US20230330104A1, “PRESERVATIVE-FREE OPHTHALMIC PHARMACEUTICAL EMULSION AND ITS APPLICATION” (Caravel Therapeutics, Inc., priority 2022, published 2023).
“And” between values parts separate entries of the source, which are not always exact repeats. Equal values may be shown once. “Also recorded” adds a separate entry of the source.

Tests used:
[1] = Stability study (ICH Q1A(R2)) of the emulsion; format: physicochemical; conditions: accelerated condition
Experimental: In this section, stability study is conducted using the abovementioned Example 1 as an example. The stability study is performed according to common practices known such as ICH HARMONISED TRIPARTITE GUIDELINE-Topic Q1A(R2) <Stability Testing of new Drug Substances and Products> and inspection items are screened based on USP chapter 771 and 1771. The stability study is carried out under two conditions: temperature of 5° C.±3° C. with no humidity; and temperature of 25° C.±2° C. with the relative humidity of 60%±5%. LBN content is determined with an HPLC equipped with an UV detector and using a mixture of two mobile phases. The HPLC condition reports as the following: [table]

[2] = tested on: patients diagnosed with open angle glaucoma; test: IOP measurement after emulsion instillation; format: in vivo, human; conditions: baseline 17.68 ± 4.11, mean ± SD
Excerpt: (§1) The patients diagnosed with open angle glaucoma in total are 35 eyes of 20 patients, wherein 10 eyes are diagnosed as POAG, and 25 eyes are NTG, besides 2 eyes had received prior corneal refractive surgery, and 1 eye had undergone cataract extraction and intraocular lens implantation. In the aspect of the medication using, 20 eyes are treatment naïve upon entry of the study (that is they are not using IOP lowering medication), and 15 eyes are previously treated with IOP lowering medication. The IOP lowering medication in the treated patients were requested for the following medication washout period: 4 weeks for beta-blockers and prostaglandin analogues, 2-4 weeks for alpha-agonists, and 1 week for carbonic anhydrase inhibitors in order to eliminate the experimental errors.
All patients are received the best corrected visual acuity test (BCVA), IOP measurement, optical coherence tomography (OCT), laser speckle flowgraph (LSFG) evaluation, fundus photo, visual field examination, blood pressure (BP), and heart rate measurement, and then these obtained data are averaged as the baseline data of the experiment, but the intraocular eye disease other than OAG, significant cataract influencing refractive errors or visual field result, systemic disease with resultant visual field defect, and unreliable LSFG results are excluded. […]

optic nerve head area = test: Laser speckle flowgraph (LSFG) evaluation, mean blur rate and pulse waveform; format: in vivo, human; conditions: for MS (mean skew): baseline 11.92 ± 3.94; for MS (mean skew) / MBRt (mean blur rate of tissue area) / MF (mean fluctuation) / MATI (mean acceleration time index) / MBRv (mean blur rate of vessel area) / MBOT (mean blowout time) / MBOS (mean blowout score): mean ± SD; for MBRt (mean blur rate of tissue area): baseline 12.65 ± 3.57; for MF (mean fluctuation): baseline 13.76 ± 3.79; for MATI (mean acceleration time index): baseline 32.62 ± 5.80; for MBRv (mean blur rate of vessel area): baseline 40.24 ± 10.65; for MBOT (mean blowout time): baseline 50.53 ± 8.53; for MBOS (mean blowout score): baseline 75.27 ± 6.51; for MBRt (%), percentage of baseline / MBRv (%), percentage of baseline: baseline 100.0 ± 0
Excerpt: as §1
(§2) All patients are received the best corrected visual acuity test (BCVA), IOP measurement, optical coherence tomography (OCT), laser speckle flowgraph (LSFG) evaluation, fundus photo, visual field examination, blood pressure (BP), and heart rate measurement, and then these obtained data are averaged as the baseline data of the experiment, but the intraocular eye disease other than OAG, significant cataract influencing refractive errors or visual field result, systemic disease with resultant visual field defect, and unreliable LSFG results are excluded.
In the LSFG evaluation, one drop of said emulsion is instilled in the examined eyes at clinic. Afterward, LSFG measurements are repeated at 30 minutes and 2 hours post-LBN instillation. The patients would continuously instill the emulsion once every night for one month, and return to clinic again for another LSFG exam. Laser speckle flowgraph (LSFG-NAVI version 3.1.39.2 software, Softcare Ltd., Fukuoka, Japan) are used to measure the mean blur rate (MBR) of the optic nerve head area for pulse waveform analysis in all patients. Averaged MBR and pulse waveform parameters are documented at each LSFG measurement in order to evaluate the effect of latanoprostene bunod using on microcirculation of optic nerve head.

[3] = tested on: patients diagnosed with open angle glaucoma; test: Blood pressure, ocular perfusion pressure and heart rate measurement; format: in vivo, human; conditions: for MOPP (mean ocular perfusion pressure): baseline 48.82 ± 7.10; for MOPP (mean ocular perfusion pressure) / MHR (mean heart rate) / MBP (mean blood pressure): mean ± SD; for MHR (mean heart rate): baseline 74.03 ± 8.95; for MBP (mean blood pressure): baseline 99.69 ± 9.90
Excerpt: as §1, §2

[4] = all time points, Wilcoxon signed rank test

O=C(CCC/C=C\C[C@@H]1[C@@H](CC[C@@H](O)CCc2ccccc2)[C@H](O)C[C@@H]1O)OCCCCO[N+](=O)[O-] [LBN, Latanoprostene bunod]
assay of LBN upon storage [1]: remained unchanged
MIOP (mean intraocular pressure) ([2]; 30 minutes after instillation): 18.29 ± 4.00 mmHg
MIOP (mean intraocular pressure) ([2]; 2 hours after instillation): 17.24 ± 4.14 mmHg
MS (mean skew) (optic nerve head area; 1 month): 10.99 ± 2.30 AU
MBRt (mean blur rate of tissue area) (optic nerve head area; 1 month): 12.67 ± 3.80 AU
MF (mean fluctuation) (optic nerve head area; 1 month): 13.44 ± 3.31 AU
MATI (mean acceleration time index) (optic nerve head area; 1 month): 31.71 ± 4.11%
MBRv (mean blur rate of vessel area) (optic nerve head area; 1 month): 45.49 ± 12.22 AU
MBOT (mean blowout time) (optic nerve head area; 1 month): 52.67 ± 6.62 AU
MBOS (mean blowout score) (optic nerve head area; 1 month): 77.26 ± 6.26 AU
MBRt (%), percentage of baseline (optic nerve head area; 1 month): 101.84 ± 15.33%
MBRv (%), percentage of baseline (optic nerve head area; 1 month): 113.91 ± 26.53%
MS (mean skew) (optic nerve head area; 30 minutes): 11.84 ± 2.08 AU
MBRt (mean blur rate of tissue area) (optic nerve head area; 30 minutes): 12.48 ± 3.04 AU
MF (mean fluctuation) (optic nerve head area; 30 minutes): 13.94 ± 4.30 AU
MATI (mean acceleration time index) (optic nerve head area; 30 minutes): 31.51 ± 4.04%
MBRv (mean blur rate of vessel area) (optic nerve head area; 30 minutes): 41.95 ± 10.03 AU
MBOT (mean blowout time) (optic nerve head area; 30 minutes): 49.76 ± 6.17 AU
MBOS (mean blowout score) (optic nerve head area; 30 minutes): 74.44 ± 7.60 AU
MBRt (%), percentage of baseline (optic nerve head area; 30 minutes): 100.63 ± 14.37%
MBRv (%), percentage of baseline (optic nerve head area; 30 minutes): 105.97 ± 16.49%
MS (mean skew) (optic nerve head area; 2 hours): 11.82 ± 2.58 AU
MBRt (mean blur rate of tissue area) (optic nerve head area; 2 hours): 12.73 ± 3.46 AU
MF (mean fluctuation) (optic nerve head area; 2 hours): 13.46 ± 3.95 AU
MBRv (mean blur rate of vessel area) (optic nerve head area; 2 hours): 45.14 ± 10.59 AU
MBOT (mean blowout time) (optic nerve head area; 2 hours): 52.09 ± 5.56 AU
MBOS (mean blowout score) (optic nerve head area; 2 hours): 76.24 ± 6.67 AU
MBRt (%), percentage of baseline (optic nerve head area; 2 hours): 101.84 ± 13.71%
MBRv (%), percentage of baseline (optic nerve head area; 2 hours): 114.36 ± 20.02% and 114.36 ± 20.2 %
mean blur rate of tissue area (MBRt), difference from baseline (optic nerve head area; [4]): not significantly different
MOPP (mean ocular perfusion pressure) ([3]; 1 month): 50.80 ± 12.06 mmHg
MHR (mean heart rate) ([3]; 1 month): 72.03 ± 10.68 min⁻¹
MBP (mean blood pressure) ([3]; 1 month): 98.08 ± 12.06 mmHg
MOPP (mean ocular perfusion pressure) ([3]; 30 minutes): 47.87 ± 8.07 mmHg
MBP (mean blood pressure) ([3]; 30 minutes): 99.62 ± 11.54 mmHg
MOPP (mean ocular perfusion pressure) ([3]; 2 hours): 48.65 ± 9.48 mmHg
MHR (mean heart rate) ([3]; 2 hours): 77.77 ± 11.11 min⁻¹
MBP (mean blood pressure) ([3]; 2 hours): 98.88 ± 14.12 mmHg
mean blood pressure (MBP), difference from baseline [3, 4]: not significantly different
mean ocular perfusion pressure (MOPP), difference from baseline [3, 4]: not significantly different; also recorded: has not differed
